System: Spodoptera frugiperda
Assay: Antifeedant activity against Spodoptera frugiperda final instar larvae at 100 ppm after 18 hrs by glass fiber disk method
Assay type: functional
Design: unit not given here

Structure (SMILES)	Activity
C=C1[C@@H]2CC[C@@]3(C)[C@H](c4ccoc4)OC(=O)C[C@]13O[C@H]1CC(=O)C(C)(C)[C@H](CC(=O)OC)[C@]12C [METHYLANGOLENSATE]	66.4
COC(=O)C[C@H]1C(C)(C)[C@H](OC(=O)C(C)C)[C@H]2C(=O)[C@]1(C)[C@H]1CC[C@]3(C)[C@@H](CC(=O)O[C@H]3c3ccoc3)[C@]13O[C@H]23 [RUAGEANIN A]	72.6
C/C=C(\C)C(=O)O[C@H]1C(C)(C)[C@H](CC(=O)OC)[C@]2(C)C(=O)[C@@]1(O)[C@H]1O[C@]13[C@@H]1CC(=O)O[C@@H](c4ccoc4)[C@]1(C)CC[C@H]23 [RUAGEANIN B]	86.3
COC(=O)C[C@H]1C(C)(C)[C@H](OC(C)=O)[C@H]2C(=O)[C@]1(C)[C@H]1CC[C@]3(C)[C@@H](CC(=O)O[C@H]3c3ccoc3)[C@]13O[C@H]23 [XYLOCARPIN]	77.8

Reference: ChEMBL document CHEMBL1158217, “Tetranortriterpenoids from Ruagea glabra” (1996)
